Measurements: patent US6274715A, “Tricyclic erythromycin derivatives” (priority 1997, dated 2001)
≈ marks a conversion by molar mass, not a printed value.

Assays:
Type in all cases: cell-based
[1] = system: STAPHYLOCOCCUS AUREUS NCTC10649M; assay: In vitro antibacterial activity, MIC, BHI agar dilution; details: S. aureus NCTC10649M, unit assumed
ESCHERICHIA COLI DC-2 = assay: as above; details: E. coli DC-2, unit assumed
[2] = system: KLEBSIELLA PNEUMONIAE ATCC 8045; assay: as above; details: K. pneumoniae ATCC 8045, unit assumed
ESCHERICHIA COLI JUHL = details: E. coli JUHL; BHI agar; unit assumed
[3] = system: MYCOBACTERIUM SMEGMATIS ATCC 114; assay: In vitro antibacterial activity, MIC, BHI agar dilution; details: M. smegmatis ATCC 114, unit assumed
[4] = system: STAPHYLOCOCCUS AUREUS ATCC 6538P; assay: as above; details: S. aureus ATCC 6538P, 35-37° C., 20 to 24 hours, unit assumed
ESCHERICHIA COLI SS = assay: as above; details: E. coli SS, unit assumed
[5] = system: STAPHYLOCOCCUS AUREUS A-5278; assay: as above; details: S. aureus A-5278, unit assumed
[6] = system: ACINETOBACTER CALCOACETICUS CMX 669; assay: as above; details: A. calcoaceticus CMX 669, unit assumed
[7] = system: STAPHYLOCOCCUS EPIDERMIDIS 3519; details: S. epidermidis 3519; BHI agar; unit assumed
[8] = system: STAPHYLOCOCCUS AUREUS A5177; assay: In vitro antibacterial activity, MIC, BHI agar dilution; details: S. aureus A5177, unit assumed
[9] = system: STAPHYLOCOCCUS AUREUS CMX 642A; assay: as above; details: S. aureus CMX 642A, unit assumed
[10] = system: STREPTOCOCCUS PYOGENES PIU 2548; assay: as above; details: S. pyogenes PIU 2548, unit assumed
ESCHERICHIA COLI KNK 437 = details: E. coli KNK 437; BHI agar; unit assumed
[11] = system: PROVIDENCIA STUARTII CMX 640; details: P. stuartii CMX 640; BHI agar; unit assumed
EN[…] ATCC 8043 = assay: In vitro antibacterial activity, MIC, BHI agar dilution; details: E. faecium ATCC 8043, unit assumed
Procedure, shortened: (§1)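 BHI agar dilution, 12 plates; inoculum 1:100 (1:10 slow-growing strains), Steers replicator; 35-37° C, 20-24 h. MIC = lowest conc. with no growth/slight haze/sparse colonies vs growth control, visual read. Erythromycin A reference plate.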

M[…] ATCC 4698 = assay: as above; details: M. luteus ATCC 4698, unit assumed
Procedure, shortened: as §1

STR[…] 508 = assay: as above; details: S. agalactiae CMX 508, unit assumed
Procedure, shortened: as §1

M[…] ATCC 9341 = assay: as above; details: M. luteus ATCC 9341, unit assumed
Procedure, shortened: as §1

[12] = system: STAPHYLOCOCCUS AUREUS CMX 553; assay: as above; details: S. aureus CMX 553, unit assumed
[13] = system: STREPTOCOCCUS PYOGENES EES61; assay: as above; details: S. pyogenes EES61, unit assumed
[14] = system: ENTEROBACTER AEROGENES ATCC 13048; assay: as above; details: E. aerogenes ATCC 13048, unit assumed
ESCHERICHIA COLI H560 = assay: as above; details: E. coli H560, unit assumed
[15] = system: STREPTOCOCCUS PYOGENES 930; assay: as above; details: S. pyogenes 930, unit assumed
[16] = system: STREPTOCOCCUS BOVIS A-5169; assay: as above; details: S. bovis A-5169, unit assumed
[17] = system: PSEUDOMONAS AERUGINOSA K799/WT; assay: as above; details: P. aeruginosa K799/WT, unit assumed
[18] = system: PSEUDOMONAS AERUGINOSA K799/61; assay: as above; details: P. aeruginosa K799/61, unit assumed
[19] = system: PSEUDOMONAS AERUGINOSA DPHD-2862; assay: as above; details: P. aeruginosa DPHD-2862, unit assumed
[20] = system: PSEUDOMONAS AERUGINOSA BMH10; assay: as above; details: P. aeruginosa BMH10, unit assumed
[21] = system: PSEUDOMONAS AERUGINOSA 5007; assay: as above; details: P. aeruginosa 5007, unit assumed
[22] = system: PSEUDOMONAS AERUGINOSA DPHD-5263; assay: as above; details: P. aeruginosa DPHD-5263, unit assumed
[23] = system: STAPHYLOCOCCUS AUREUS 1775; assay: as above; details: S. aureus 1775, unit assumed
CANDIDA ALBICANS CCH 442 = assay: as above; details: C. albicans CCH 442, unit assumed
PSEUDOMONAS CEPACIA 296I = assay: as above; details: P. cepacia 296I, unit assumed

Compound	MIC [1]	MIC (ESCHERICHIA COLI DC-2)	MIC [2]	MIC (ESCHERICHIA COLI JUHL)	MIC [3]	MIC [4]	MIC (ESCHERICHIA COLI SS)	MIC [5]	MIC [6]	MIC [7]	MIC [8]	MIC [9]	MIC [10]	MIC (ESCHERICHIA COLI KNK 437)	MIC [11]	MIC (EN[…] ATCC 8043)	MIC (M[…] ATCC 4698)	MIC (STR[…] 508)	MIC (M[…] ATCC 9341)	MIC [12]	also measured
CC[C@H]1OC(=O)[C@H](C)C(=O)[C@H](C)[C@@H](O[C@@H]2O[C@H](C)C[C@H](N(C)C)[C@H]2O)[C@](C)(OC)C[C@@H](C)C2=NC[C@H](Cc3ccc(O)cc3)N3C(=O)O[C@@]1(C)[C@H]3[C@H]2C [Example 65]	0.39 µg/mL (≈ 0.524 µM)	50 µg/mL (≈ 67.2 µM)	> 100 µg/mL	50 µg/mL (≈ 67.2 µM)	6.2 µg/mL (≈ 8.33 µM)	0.39 µg/mL (≈ 0.524 µM)	0.39 µg/mL (≈ 0.524 µM)	> 100 µg/mL	100 µg/mL (≈ 134 µM)	0.39 µg/mL (≈ 0.524 µM)	0.39 µg/mL (≈ 0.524 µM)	0.39 µg/mL (≈ 0.524 µM)	1.56 µg/mL (≈ 2.1 µM)	100 µg/mL (≈ 134 µM)	> 100 µg/mL	0.1 µg/mL (≈ 0.134 µM)	0.39 µg/mL (≈ 0.524 µM)	0.02 µg/mL (≈ 0.0269 µM)	0.05 µg/mL (≈ 0.0672 µM)	0.39 µg/mL (≈ 0.524 µM)	MIC [13]: 0.02 µg/mL (≈ 0.0269 µM); MIC [14]: > 100 µg/mL; MIC (ESCHERICHIA COLI H560): 50 µg/mL (≈ 67.2 µM); MIC [15]: > 100 µg/mL; MIC [16]: 0.01 µg/mL (≈ 0.0134 µM); MIC [17]: > 100 µg/mL; MIC [18]: 0.78 µg/mL (≈ 1.05 µM); MIC [19]: > 100 µg/mL; MIC [20]: > 100 µg/mL; MIC [21]: > 100 µg/mL; MIC [22]: > 100 µg/mL; MIC [23]: > 100 µg/mL; MIC (CANDIDA ALBICANS CCH 442): > 100 µg/mL; MIC (PSEUDOMONAS CEPACIA 296I): 100 µg/mL (≈ 134 µM)
CC[C@H]1OC(=O)[C@H](C)C(=O)[C@H](C)[C@@H](O[C@@H]2O[C@H](C)C[C@H](N(C)C)[C@H]2O)[C@](C)(OC)C[C@@H](C)C2=N[C@H](COCc3ccc(C(=O)OC)cc3)CN3C(=O)O[C@@]1(C)[C@H]3[C@H]2C [Example 84]	0.2 µg/mL (≈ 0.245 µM)	> 100 µg/mL	> 100 µg/mL	> 100 µg/mL	0.78 µg/mL (≈ 0.956 µM)	0.2 µg/mL (≈ 0.245 µM)	1.56 µg/mL (≈ 1.91 µM)	> 100 µg/mL	> 100 µg/mL	0.39 µg/mL (≈ 0.478 µM)	0.2 µg/mL (≈ 0.245 µM)	0.2 µg/mL (≈ 0.245 µM)	0.2 µg/mL (≈ 0.245 µM)	> 100 µg/mL	> 100 µg/mL	0.05 µg/mL (≈ 0.0613 µM)	0.39 µg/mL (≈ 0.478 µM)	0.02 µg/mL (≈ 0.0245 µM)	0.1 µg/mL (≈ 0.123 µM)	0.2 µg/mL (≈ 0.245 µM)	MIC [13]: 0.02 µg/mL (≈ 0.0245 µM); MIC [14]: > 100 µg/mL; MIC (ESCHERICHIA COLI H560): > 100 µg/mL; MIC [15]: 100 µg/mL (≈ 123 µM); MIC [16]: ≤ 0.005 µg/mL; MIC [17]: > 100 µg/mL; MIC [18]: 3.1 µg/mL (≈ 3.8 µM); MIC [19]: > 100 µg/mL; MIC [20]: > 100 µg/mL; MIC [21]: > 100 µg/mL; MIC [22]: > 100 µg/mL; MIC [23]: > 100 µg/mL; MIC (CANDIDA ALBICANS CCH 442): > 100 µg/mL; MIC (PSEUDOMONAS CEPACIA 296I): > 100 µg/mL
CC[C@H]1OC(=O)[C@H](C)C(=O)[C@H](C)[C@@H](O[C@@H]2O[C@H](C)C[C@H](N(C)C)[C@H]2O)[C@](C)(OC)C[C@@H](C)C2=N[C@H](COCc3ccnc4ccccc34)CN3C(=O)O[C@@]1(C)[C@H]3[C@H]2C [Example 85]	0.39 µg/mL (≈ 0.482 µM)	> 100 µg/mL	> 100 µg/mL	> 100 µg/mL	3.1 µg/mL (≈ 3.83 µM)	0.2 µg/mL (≈ 0.247 µM)	0.78 µg/mL (≈ 0.964 µM)	> 100 µg/mL	100 µg/mL (≈ 124 µM)	0.2 µg/mL (≈ 0.247 µM)	0.2 µg/mL (≈ 0.247 µM)	0.2 µg/mL (≈ 0.247 µM)	0.1 µg/mL (≈ 0.124 µM)	> 100 µg/mL	> 100 µg/mL	0.02 µg/mL (≈ 0.0247 µM)	0.78 µg/mL (≈ 0.964 µM)	0.02 µg/mL (≈ 0.0247 µM)	0.02 µg/mL (≈ 0.0247 µM)	0.2 µg/mL (≈ 0.247 µM)	MIC [13]: ≤ 0.005 µg/mL; MIC [14]: > 100 µg/mL; MIC (ESCHERICHIA COLI H560): > 100 µg/mL; MIC [15]: 100 µg/mL (≈ 124 µM); MIC [16]: 0.01 µg/mL (≈ 0.0124 µM); MIC [17]: > 100 µg/mL; MIC [18]: 3.1 µg/mL (≈ 3.83 µM); MIC [19]: > 100 µg/mL; MIC [20]: > 100 µg/mL; MIC [21]: > 100 µg/mL; MIC [22]: > 100 µg/mL; MIC [23]: > 100 µg/mL; MIC (CANDIDA ALBICANS CCH 442): > 100 µg/mL; MIC (PSEUDOMONAS CEPACIA 296I): 100 µg/mL (≈ 124 µM)
CC[C@H]1OC(=O)[C@H](C)C(=O)[C@H](C)[C@@H](O[C@@H]2O[C@H](C)C[C@H](N(C)C)[C@H]2O)[C@](C)(OC)C[C@@H](C)C2=N[C@H](COCCN3CCOCC3)CN3C(=O)O[C@@]1(C)[C@H]3[C@H]2C [Example 87]	1.56 µg/mL (≈ 2 µM)	> 100 µg/mL	> 100 µg/mL	> 100 µg/mL	12.5 µg/mL (≈ 16 µM)	1.56 µg/mL (≈ 2 µM)	1.56 µg/mL (≈ 2 µM)	> 100 µg/mL	> 100 µg/mL	1.56 µg/mL (≈ 2 µM)	1.56 µg/mL (≈ 2 µM)	1.56 µg/mL (≈ 2 µM)	3.1 µg/mL (≈ 3.97 µM)	> 100 µg/mL	> 100 µg/mL	0.39 µg/mL (≈ 0.499 µM)	1.56 µg/mL (≈ 2 µM)	0.2 µg/mL (≈ 0.256 µM)	0.1 µg/mL (≈ 0.128 µM)	1.56 µg/mL (≈ 2 µM)	MIC [13]: 0.2 µg/mL (≈ 0.256 µM); MIC [14]: > 100 µg/mL; MIC (ESCHERICHIA COLI H560): > 100 µg/mL; MIC [15]: > 100 µg/mL; MIC [16]: 0.05 µg/mL (≈ 0.064 µM); MIC [17]: > 100 µg/mL; MIC [18]: 3.1 µg/mL (≈ 3.97 µM); MIC [19]: > 100 µg/mL; MIC [20]: > 100 µg/mL; MIC [21]: > 100 µg/mL; MIC [22]: > 100 µg/mL; MIC [23]: > 100 µg/mL; MIC (CANDIDA ALBICANS CCH 442): > 100 µg/mL; MIC (PSEUDOMONAS CEPACIA 296I): > 100 µg/mL
